According to patent publication US7351737B2, “4-[(8-substituted)-6-chromanoyl]-and 4-[8-substituted)-chroman-6-YL-ethynyl]-benzoic and phenylacetic acids, their esters and salts having cytochrome P450RAI inhibitory activity” (Allergan, Inc., priority 2002, dated 2008):

Columns and labels:
RARγ = target: T1, RARγ (Homo sapiens, UniProt P13631); assay: chimeric receptor transactivation assay, RARγ; assay type: cell-based; conditions: for RAR γ (EFFICACY): value in brackets
T1 sequence (P13631 185-419 limits assumed): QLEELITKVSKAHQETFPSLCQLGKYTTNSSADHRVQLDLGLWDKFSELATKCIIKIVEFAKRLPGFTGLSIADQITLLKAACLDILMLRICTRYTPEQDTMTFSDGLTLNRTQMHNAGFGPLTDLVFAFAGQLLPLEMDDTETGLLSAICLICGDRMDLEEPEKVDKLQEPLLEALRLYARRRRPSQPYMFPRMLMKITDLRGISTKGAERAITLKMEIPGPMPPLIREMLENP
Excerpt: (§1) Assays described below measure the ability of a compound to bind to, and/or activate various retinoid receptor subtypes. When in these assays a compound binds to a given receptor subtype and activates the transcription of a reporter gene through that subtype, then the compound is considered an agonist of that receptor subtype. […] In the below described assays the ability of the compounds to bind to RARα, RARβ, RARγ, RXRα, RXRβ and RXRγ receptors, and the ability or inability of the compounds to activate transcription of a reporter gene through these receptor subtypes can be tested.
(§2) As far as specific assays are concerned, a chimeric receptor transactivation assay which tests for agonist-like activity in the RARα, RARβ, and RARγ, receptor subtypes, and which is based on work published by Feigner P. L. and Holm M. (1989) Focus, 112 is described in detail in U.S. Pat. No. 5,455,265. The specification of U.S. Pat. No. 5,455,265 is hereby expressly incorporated by reference. The numeric results obtained with several preferred compounds of this invention in this assay are shown below in Table 1.
(§3) A holoreceptor transactivation assay and a ligand binding assay which measure the antagonist/agonist like activity of the compounds of the invention, or their ability to bind to the several retinoid receptor subtypes, respectively, are described in published PCT Application No. WO WO93/11755 (particularly on pages 30-33 and 37-41) published on Jun. 24, 1993, the specification of which is also incorporated herein by reference. A detailed experimental procedure for holoreceptor transactivations has been described by Heyman et al. Cell 68, 397-406, (1992); Allegretto et al. J. Biol. Chem. 268, 26625-26633, and Mangelsdorf et al. The Retinoids: Biology, Chemistry and Medicine, pp 319-349, Raven Press Ltd., New York, which are expressly incorporated herein by reference. The results obtained in this assay are expressed in EC50 numbers, as they are also in the chimeric receptor transactivation assay. The results of ligand binding assay are expressed in Kd numbers. (See Cheng et al. Biochemical Pharmacology Vol. 22 pp 3099-3108, expressly incorporated herein by reference.)

RARα = target: T2, RARα (Homo sapiens, UniProt P10276); assay: chimeric receptor transactivation assay, RARα; assay type: cell-based; conditions: for RAR α (EFFICACY): value in brackets
T2 sequence (P10276 183-417 limits assumed): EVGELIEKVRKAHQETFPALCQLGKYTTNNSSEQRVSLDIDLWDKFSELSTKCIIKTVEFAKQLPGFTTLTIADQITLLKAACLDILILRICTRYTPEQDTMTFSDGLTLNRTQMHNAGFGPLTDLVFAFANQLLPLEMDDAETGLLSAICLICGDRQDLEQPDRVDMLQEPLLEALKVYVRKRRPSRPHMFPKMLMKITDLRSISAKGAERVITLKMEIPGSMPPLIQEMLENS
Excerpt: as §1, §2, §3

RARβ = target: T3, RARβ (Homo sapiens, UniProt P10826); assay: chimeric receptor transactivation assay, RARβ; assay type: cell-based; conditions: first item of cell EC50/(EFFICACY)/Kd, read-out: RAR β EC50
T3 sequence (P10826 183-417 limits assumed): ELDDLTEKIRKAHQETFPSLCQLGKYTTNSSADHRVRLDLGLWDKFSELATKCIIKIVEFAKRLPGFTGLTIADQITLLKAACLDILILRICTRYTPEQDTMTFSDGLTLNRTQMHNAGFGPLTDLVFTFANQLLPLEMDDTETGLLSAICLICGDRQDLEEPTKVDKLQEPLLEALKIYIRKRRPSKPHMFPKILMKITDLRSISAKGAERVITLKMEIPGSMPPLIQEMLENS
Excerpt: as §1
as §2, with “1. […]” for “1.”

skin of fuzzy rats = assay: Topical skin irritation test; assay type: in vivo, female fuzzy rats (Hsd:FUZZY-fz); conditions: topical in acetone, daily Day 1-14, group average of grade 0-4
Excerpt: The topical retinoid all-trans-retinoic acid (ATRA) and oral retinoids such as 13-cis RA and etretinate are known to induce substantial skin irritation in humans. This irritation is a direct result of activation of the RAR nuclear receptors. Analysis of retinoid topical irritation is also a highly reproducable method of determining in vivo retinoid potency. The female fuzzy rats provide a convenient animal model of topical irritation, since retinoid-induced skin flaking and abrasion can be readily scored by eye, while their larger size than those of mice also allows multiple sampling of serum for clinical analyses. Topical application of P450RAI inhibitors should cause an increase in the endogenous levels of ATRA that would result in ATRA-induced irritation in skin of hairless mice. In these tests female fuzzy rats ((Hsd:FUZZY-fz), 6-7 weeks old, were obtained from Harlan Sprague-Dawley (Indianapolis, Ind.). The animals were about 8-9 weeks old at the start of the experiments. Food (Purina Rodent Chow 5001) and water purified by reverse osmosis were provided ad libitum. The rats were housed individually throughout the dosing period. Test chemicals were dissolved in acetone (vehicle) for application to the backs of the rats. Two days prior to actual administration of the test compounds, rats were handled daily and dosed with vehicle at a volume of 0.5 ml/kg. Starting on Day 1 thought Day 14 (dosing period), animals were dosed with the vehicle or compound(s) according to their group assignment. The rats in the tests were observed daily and the dorsal skin was graded for the degree of erythema/eschar and overall appearance. The scoring was in accordance with Table 2, below. [table] Daily group average was calculated by dividing the sum of the individual grade by the number of animals in each treatment group. The attached data in Table 3 indicates the retinoid-mimetic effects of some P450RAI inhibitors on the skin of fuzzy rats in the above described tests and in accordance with the above-indicated scoring.

Row | RAR γ (EFFICACY) (RARγ) | RAR α (EFFICACY) (RARα) | Structure (SMILES) | Irritation Score on day 14 (skin of fuzzy rats; 1% compound + 0.1% retinol) | Irritation Score on day 14 (skin of fuzzy rats; 1% compound alone) | further results
1 | 30 | 15 | C#Cc1cc(C#Cc2ccc(CC(=O)O)cc2)cc2c1OC(C)(C)CC2(C)C [Compound 40, [4-(8-Ethynyl-2,2,4,4-tetramethyl-chroman-6-ylethynyl)-phenyl]-acetic acid] | – | – | EC50 (RARγ; first item of cell EC50/(EFFICACY)/Kd, read-out: RAR γ EC50): 149 nM; EC50 (RARα; first item of cell EC50/(EFFICACY)/Kd, read-out: RAR α EC50): 129 nM; EC50 (RARβ): 101 nM
2 | – | – | C#Cc1cc(C(=O)Oc2ccc(CC(=O)OCOC(C)=O)cc2)cc2c1OC(C)(C)CC2(C)C [Compound 3, 8-Ethynyl-2,2,4,4-tetramethyl-chroman-6-carboxylic acid 4-acetoxymethoxycarbonylmethyl-phenyl ester] | 2.4 | 0 | –
3 | – | – | C#Cc1cc(C(=O)Oc2ccc(CC(=O)O)cc2)cc2c1OC(C)(C)CC2(C)C [Compound 1, 8-Ethynyl-2,2,4,4-tetramethyl-chroman-6-carboxylic acid 4-carboxymethyl-phenyl ester] | – | – | Irritation Score on day 14 (skin of fuzzy rats; 3% compound + 0.1% retinol): 1; Irritation Score on day 14 (skin of fuzzy rats; 3% compound alone): 2.6
4 | 20 | 10 | C#Cc1cc(C#Cc2ccc(CC(=O)O)c(F)c2)cc2c1OC(C)(C)CC2(C)C [Compound 41, [4-(8-Ethynyl-2,2,4,4-tetramethyl-chroman-6-ylethynyl)-2-fluoro-phenyl]-acetic acid] | – | – | –
5 | 20 | 20 | C#Cc1cc(C(=O)Oc2ccc(CC(=O)O)c(F)c2)cc2c1OC(C)(C)CC2(C)C [Compound 4, 8-Ethynyl-2,2,4,4-tetramethyl-chroman-6-carboxylic acid-4-carboxymethyl-3-fluoro-phenyl ester] | 3.4 | 1.4 | EC50 (RARβ): 263 nM
6 | – | – | C#Cc1cc(C(=O)Oc2ccc(CC(=O)OCC)cc2)cc2c1OC(C)(C)CC2(C)C [Compound 2, 8-Ethynyl-2,2,4,4-tetramethyl-chroman-6-carboxylic acid 4-ethoxycarbonylmethyl-phenyl ester] | 1.6 | 0 | –

Row | Structure (SMILES) | RAR γ (EFFICACY) (RARγ) | RAR α (EFFICACY) (RARα) | Irritation Score on day 14 (skin of fuzzy rats; 1% compound + 0.1% retinol) | Irritation Score on day 14 (skin of fuzzy rats; 1% compound alone) | further results
7 | C#Cc1cc(C(=O)Oc2ccc(CC(=O)OCOC(C)=O)c(F)c2)cc2c1OC(C)(C)CC2(C)C [Compound 5, 8-Ethynyl-2,2,4,4-tetramethyl-chroman-6-carboxylic acid 4-acetoxymethoxycarbonylmethyl-3-fluoro-phenyl ester] | – | 10 | – | – | Irritation Score on day 14 (skin of fuzzy rats; 0.1% compound + 0.1% retinol): 2.2; Irritation Score on day 14 (skin of fuzzy rats; 0.1% compound alone): 0.4
